In patent US11179371B2, “Triazole benzamide derivatives as GPR142 agonists” (Boehringer Ingelheim International GmbH, priority 2018, dated 2021):

Biological target: T1, human GPR142 receptor (Homo sapiens, UniProt Q7Z601)
T1 construct: Gene ID: 350383) was cloned; expressed in transfected cells
T1 sequence (Q7Z601 1-462): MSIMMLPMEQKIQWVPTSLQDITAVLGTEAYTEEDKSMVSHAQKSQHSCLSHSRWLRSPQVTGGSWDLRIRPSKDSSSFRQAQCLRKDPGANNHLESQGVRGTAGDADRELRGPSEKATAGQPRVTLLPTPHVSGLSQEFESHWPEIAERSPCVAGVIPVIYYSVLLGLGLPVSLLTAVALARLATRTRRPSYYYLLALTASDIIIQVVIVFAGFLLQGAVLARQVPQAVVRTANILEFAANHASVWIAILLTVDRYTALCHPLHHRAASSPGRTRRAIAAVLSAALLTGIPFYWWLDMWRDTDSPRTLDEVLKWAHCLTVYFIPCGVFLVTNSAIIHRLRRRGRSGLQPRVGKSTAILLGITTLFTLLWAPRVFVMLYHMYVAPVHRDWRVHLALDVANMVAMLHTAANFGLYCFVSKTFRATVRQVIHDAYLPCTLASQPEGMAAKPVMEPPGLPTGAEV
Experiment: IP1 accumulation HTRF assay for GPR142 agonist activity in HEK293 FLPinTREX cells
Assay type: cell-based
Details: HEK293 FLPinTREX cells stably expressing human GPR142, IP1 generation (IP-One HTRF), 60 minutes at 37° C.
Experimental: This assay allows monitoring activity of compounds acting on Gq-coupled receptors. The principle of the assay is based on the competition between IP1 generated in the cells with d2-labeled IP1 for binding to a monoclonal anti-IP1 […] cryptate that allows for measuring quantitative changes using the Homogeneous Time Resolved Fluorescence. LiCl is added to the cell stimulation buffer, causing IP1 to accumulate upon receptor activation.
The open reading frame encoding the human GPR142 receptor (primary accession number: NM_181790; Gene ID: 350383) was cloned into the pcDNA5/FRT/TO vector for stable, and inducible expression using the Flp-In™ T-REx™ technology in HEK293 FLPinTREX cells. For stable expression, HEK293 FLPinTREX cells were co-transfected with the vector encoding human GPR142 and the pOG44 plasmid that constitutively expresses the Flp recombinase for stable integration of the human GPR142 into the genome of the Flp-In™ T-REx™ host cell line. Stably expressing clones were obtained by hygromycin (100 μg/ml) selection. To test for GPR142 agonist activity the human GPR142 receptor cell clone was thawed at 37° C. and immediately diluted with cell culture medium (Hams F12 medium; 10% FBS, 15 μg/ml Blasticidin, 100 μg/ml Hygromycin B). After centrifugation, the cell pellet was resuspended in medium, and distributed into the assay well plates (10000 cells/well; 20 μl/well). Receptor expression was induced by adding 0.1 μg/ml Doxycyclin to the culture medium. The plates were incubated for one hour at room temperature, followed by a 24 hours incubation at 37° C./5% CO2. After washing the cells in the plate twice with 60 μl assay buffer (10 mM HEPES, 1 mM CaCl2, 0.5 mM MgCl2, 4.2 mM KCl, 146 mM NaCl, 5.5 mM Glucose, 50 mM LiCl and 0.1% BSA, pH 7.4; 20 μl buffer remained in the wells after washing), 10 μl per well of test compound diluted in assay buffer was added to the wells. The assay plate was incubated for 60 minutes at 37° C. Then 5 μl per well of Anti-IP1-Cryptate Tb solution (prepared by 1:33 dilution of stock with Lysis buffer from IP-One Kit) and 5 μl per well of IP1-d2 (Prepared by 1:33 dilution of stock with Lysis buffer from IP-One Kit) dilution were added, followed by another 60 minutes incubation (light protected, room temperature). The emissions at 615 nm and 665 nm (excitation wavelength: 320 nm) were measured on the EnVision™ reader (PerkinElmer). The ratio between the emission at 665 nm and 615 was calculated by the reader.
Each assay microtiter plate contained 8 wells in with vehicle controls instead of compound (100% CTL; low values, negative control) and 8 wells with a reference GPR142 agonist (200% CTL; high values; positive control). An IP1 standard curve was prepared according to the manufacturer.
The ratio between the emission at 665 nm and the emission at 615 nm (Em665/Em615 ratio) was calculated and the signals for the test items were normalized using the positive and negative controls by the following formula: 100−(100×[(ratio(sample)−ratio(low))/(ratio(high)−ratio(low))].

Row | Structure (SMILES) | EC50 [nM]
1 | Cc1ccc(C(=O)Nc2cccc(C(F)(F)F)c2)cc1-n1cc(-c2cncn2C)nn1 [Example 1] | 0.4
2 | Cn1cncc1-c1cn(-c2cccc(C(=O)Nc3cccc(C(F)(F)F)c3)c2)nn1 [Example 2, 3-[4-(1-Methyl-1H-imidazol-5-yl)-1H-1,2,3-triazol-1-yl]-N-[3-(trifluoromethyl)-phenyl]benzamide] | 0.05
3 | Cn1cncc1-c1cn(-c2cccc(C(=O)Nc3cccc(Cl)c3)c2)nn1 [Example 3] | 0.21
4 | Cn1cncc1-c1cn(-c2cccc(C(=O)Nc3cccc(OC(F)(F)F)c3)c2)nn1 [Example 4] | 0.47
5 | Cc1ccc(C(=O)Nc2cccc(Cl)c2)cc1-n1cc(-c2cncn2C)nn1 [Example 5] | 0.37
6 | Cc1ccc(C(=O)Nc2cccc(OC(F)(F)F)c2)cc1-n1cc(-c2cncn2C)nn1 [Example 6] | 0.21
7 | Cc1cccc(NC(=O)c2cccc(-n3cc(-c4cncn4C)nn3)c2)c1 [Example 7] | 0.37
8 | Cc1ncn(C)c1-c1cn(-c2cccc(C(=O)Nc3cccc(C(F)(F)F)c3)c2)nn1 [Example 8, 3-[4-(1,4-Dimethyl-1H-imidazol-5-yl)-1H-1,2,3-triazol-1-yl]-N-[3-(trifluoromethyl)-phenyl]benzamide] | 0.63
9 | Cn1cncc1-c1cn(-c2cccc(C(=O)Nc3cccc(C(F)(F)F)c3F)c2)nn1 [Example 9] | 0.45
10 | Cn1cncc1-c1cn(-c2cccc(C(=O)Nc3cc(F)cc(C(F)(F)F)c3)c2)nn1 [Example 10] | < 0.38
11 | Cn1cncc1-c1cn(-c2cccc(C(=O)Nc3cccc(C#N)c3)c2)nn1 [Example 11] | 0.74
12 | COC(=O)c1cccc(NC(=O)c2cccc(-n3cc(-c4cncn4C)nn3)c2)c1 [Example 12] | 0.73
13 | CN(C)c1cccc(NC(=O)c2cccc(-n3cc(-c4cncn4C)nn3)c2)c1 [Example 13] | 0.85
14 | COc1cccc(NC(=O)c2cccc(-n3cc(-c4cncn4C)nn3)c2)c1 [Example 14] | 0.86
15 | Cn1cncc1-c1cn(-c2cccc(C(=O)Nc3cccc([N+](=O)[O-])c3)c2)nn1 [Example 15] | < 0.38
16 | Cc1cc(Br)cc(NC(=O)c2cccc(-n3cc(-c4cncn4C)nn3)c2)c1 [Example 16] | < 0.38
17 | Cc1ncn(C)c1-c1cn(-c2cccc(C(=O)Nc3cccc(Cl)c3)c2)nn1 [Example 17] | 0.95
18 | Cc1ncn(C)c1-c1cn(-c2cccc(C(=O)Nc3cccc(OC(F)(F)F)c3)c2)nn1 [Example 18] | 0.64
19 | Cn1cncc1-c1cn(-c2cccc(C(=O)Nc3cccc(OC(F)F)c3)c2)nn1 [Example 19] | < 0.38
20 | Cn1cncc1-c1cn(-c2cccc(C(=O)Nc3cccc(OC(F)(F)C(F)F)c3)c2)nn1 [Example 20] | 0.64
